Assay results reported in US20240207650A1, “ULTRASOUND-INDUCED MICROBUBBLE DRUG DELIVERY SYSTEM LOADING STABILIZED HYDROPHOBIC DRUG WITH POLYETHYLENE GLYCOL BASED NONIONIC SURFACTANT AND METHOD OF MANUFACTURING THE SAME” (SAHMYOOK UNIVERSITY INDUSTRY-ACADEMIC COOPERATION FOUNDATION, priority 2022, published 2024).

Test system: U87MG cells
Assay: Cytotoxic experiment, cell viability with tetrazolium salt derivatives
Format: cell-based
Conditions: 72 hours, free drug 0.01-100 μM, FIG. 5
Method: An experiment is performed to identify cytotoxicity of the manufactured microbubble drug delivery system and the drug delivery system loading the drugs. The experiment is performed after an experimental group manufactured by using the method in Example 1-2 (microbubble drug delivery system loading paclitaxel PTX@MB) and a control group (microbubble without loaded drugs MB) are deaerated to burst bubbles. Each solution is added to U87MG cells to respectively set final concentrations to 10%, 1%, 0.1%, 0.01%, and 0.001% and final concentrations of free paclitaxel are respectively set to 100 μM, 10 μM, 1 μM, 0.1 μM, and 0.01 μM. 5000 cells are grown in each well and cells are cultured for 72 hours. Then, a solution containing a cell culture fluid and tetrazolium salt derivatives are added to measure cell viability and in-vitro cytotoxicity of each material is identified.

CC(=O)O[C@H]1C(=O)[C@@]2(C)[C@H]([C@H](OC(=O)c3ccccc3)[C@]3(O)C[C@H](OC(=O)[C@H](O)[C@@H](NC(=O)c4ccccc4)c4ccccc4)C(C)=C1C3(C)C)[C@]1(OC(C)=O)CO[C@@H]1C[C@@H]2O [free paclitaxel, Paclitaxel]
concentration at which cytotoxicity is identified: above 1 μM
